Results as given in PubChem BioAssay AID2060893 (Molecular Pharmacology Branch, DTP, NCI, 2025).
“And” between values parts separate entries of the source, which are not always exact repeats. Equal values may be shown once.

System: K86415-001-R-J1-PDC complex spheroids, viability
Assay: Anticancer human tumor K86415-001-R-J1-PDC patient-derived lung adenocarcinoma cell line growth inhibition [RAS]
Details: for viability, T/C: stronger effect = lower value; active = viability on the fitted dose curve at most 10% of control; inactive = the rest
Summary of the method: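 Tumour cells grown as complex spheroids with HUVEC endothelial cells and mesenchymal stem cells, treated with RAS pathway inhibitor combinations. Each agent spans half-log steps from near clinical Cmax, or 10 microM where Cmax is unknown.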
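Also: spheroids exposed to agents for seven days before readout.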

CCN1CCN(Cc2ccc(Nc3ncc(F)c(-c4cc(F)c5nc(C)n(C(C)C)c5c4)n3)nc2)CC1 + CCn1c(-c2cc(N3CCN(C)CC3)cnc2C(C)OC)c2c3cc(ccc31)-c1csc(n1)CC(NC(=O)C1CC1C)C(=O)N1CCCC(N1)C(=O)OCC(C)(C)C2
< 3.16 nM: IC50 (curve of first compound, second compound 0.000949 µM) | IC50 (curve of first compound, second compound 0.003 µM) | IC50 (curve of first compound, second compound 0.00949 µM) | IC50 (curve of first compound, second compound 0.03 µM) | IC50 (curve of first compound, second compound 0.0949 µM) | IC50 (curve of first compound, second compound 0.3 µM)
active: viability, T/C (second compound 0.03 µM, first compound 0.00316 µM) 5.68% | viability, T/C (second compound 0.03 µM, first compound 0.01 µM) 6.29% | viability, T/C (second compound 0.03 µM, first compound 0.0316 µM) 3.09% | viability, T/C (second compound 0.03 µM, first compound 0.1 µM) 5.81% | viability, T/C (second compound 0.03 µM, first compound 0.316 µM) 4.33% | viability, T/C (second compound 0.03 µM, first compound 1 µM) 3.19% | viability, T/C (second compound 0.0949 µM, first compound 0.00316 µM) 3.17% | viability, T/C (second compound 0.0949 µM, first compound 0.01 µM) 3.79% | viability, T/C (second compound 0.0949 µM, first compound 0.0316 µM) 3.86% | viability, T/C (second compound 0.0949 µM, first compound 0.1 µM) 3.09% | viability, T/C (second compound 0.0949 µM, first compound 0.316 µM) 2.31% | viability, T/C (second compound 0.0949 µM, first compound 1 µM) 1.64% | viability, T/C (second compound 0.3 µM, first compound 0.00316 µM) 2.92% | viability, T/C (second compound 0.3 µM, first compound 0.01 µM) 3.03% | viability, T/C (second compound 0.3 µM, first compound 0.0316 µM) 2.27% | viability, T/C (second compound 0.3 µM, first compound 0.1 µM) 1.73% | viability, T/C (second compound 0.3 µM, first compound 0.316 µM) 1.63% | viability, T/C (second compound 0.3 µM, first compound 1 µM) 1.66%
inactive: viability, T/C (second compound 0.000949 µM, first compound 0.00316 µM) 47.9% | viability, T/C (second compound 0.000949 µM, first compound 0.01 µM) 40.1% | viability, T/C (second compound 0.000949 µM, first compound 0.0316 µM) 34.3% | viability, T/C (second compound 0.000949 µM, first compound 0.1 µM) 34.2% | viability, T/C (second compound 0.000949 µM, first compound 0.316 µM) 35.9% | viability, T/C (second compound 0.000949 µM, first compound 1 µM) 40.8% | viability, T/C (second compound 0.003 µM, first compound 0.00316 µM) 21.5% | viability, T/C (second compound 0.003 µM, first compound 0.01 µM) 17.4% | viability, T/C (second compound 0.003 µM, first compound 0.0316 µM) 17.5% | viability, T/C (second compound 0.003 µM, first compound 0.1 µM) 19.1% | viability, T/C (second compound 0.003 µM, first compound 0.316 µM) 26.6% | viability, T/C (second compound 0.003 µM, first compound 1 µM) 23.5% | viability, T/C (second compound 0.00949 µM, first compound 0.00316 µM) 12.5% | viability, T/C (second compound 0.00949 µM, first compound 0.01 µM) 10.9% | viability, T/C (second compound 0.00949 µM, first compound 0.0316 µM) 10.3% | viability, T/C (second compound 0.00949 µM, first compound 0.1 µM) 11.9% | viability, T/C (second compound 0.00949 µM, first compound 0.316 µM) 10.6% | viability, T/C (second compound 0.00949 µM, first compound 1 µM) 8.22%

C=CC(=O)Nc1cc(Nc2nccc(-c3cn(C)c4ccccc34)n2)c(OC)cc1N(C)CCN(C)C
inactive: viability, T/C (compound 0.00316 µM) 105% [middle of 4 runs] | viability, T/C (compound 0.01 µM) 98.8% [middle of 4 runs] | viability, T/C (compound 0.0316 µM) 101% [middle of 4 runs] | viability, T/C (compound 0.1 µM) 85.1% (2×) and 93.4% and 76.6% | viability, T/C (compound 0.316 µM) 67.2% [middle of 4 runs] | viability, T/C (compound 1 µM) 40.9% [middle of 4 runs]
659 nM [middle of 4 runs]: IC50 (curve of compound)

CC(C)NCC(C(=O)N1CCN(c2ncnc3c2C(C)CC3O)CC1)c1ccc(Cl)cc1 (stereo not given) + C#Cc1c(F)ccc2cc(O)cc(-c3ncc4c(N5CC6CCC(C5)N6)nc(OCC56CCCN5CC(F)C6)nc4c3F)c12
7290 nM: IC50 (curve of first compound, second compound 0.1 µM)
4250 nM: IC50 (curve of first compound, second compound 1 µM)
inactive: viability, T/C (second compound 0.0316 µM, first compound 0.0316 µM) 109% | viability, T/C (second compound 0.0316 µM, first compound 0.1 µM) 106% | viability, T/C (second compound 0.0316 µM, first compound 0.316 µM) 106% | viability, T/C (second compound 0.0316 µM, first compound 1 µM) 89.6% | viability, T/C (second compound 0.0316 µM, first compound 3.16 µM) 72.3% | viability, T/C (second compound 0.0316 µM, first compound 10 µM) 42.6% | viability, T/C (second compound 0.1 µM, first compound 0.0316 µM) 113% | viability, T/C (second compound 0.1 µM, first compound 0.1 µM) 103% | viability, T/C (second compound 0.1 µM, first compound 0.316 µM) 113% | viability, T/C (second compound 0.1 µM, first compound 1 µM) 90.4% | viability, T/C (second compound 0.1 µM, first compound 3.16 µM) 68.7% | viability, T/C (second compound 0.1 µM, first compound 10 µM) 43.1% | viability, T/C (second compound 0.316 µM, first compound 0.0316 µM) 97% | viability, T/C (second compound 0.316 µM, first compound 0.1 µM) 94.1% | viability, T/C (second compound 0.316 µM, first compound 0.316 µM) 90.9% | viability, T/C (second compound 0.316 µM, first compound 1 µM) 84.7% | viability, T/C (second compound 0.316 µM, first compound 3.16 µM) 64.4% | viability, T/C (second compound 0.316 µM, first compound 10 µM) 45.3% | viability, T/C (second compound 1 µM, first compound 0.0316 µM) 74.4% | viability, T/C (second compound 1 µM, first compound 0.1 µM) 62% | viability, T/C (second compound 1 µM, first compound 0.316 µM) 56.2% | viability, T/C (second compound 1 µM, first compound 1 µM) 65.1% | viability, T/C (second compound 1 µM, first compound 3.16 µM) 54.8% | viability, T/C (second compound 1 µM, first compound 10 µM) 39.3% | viability, T/C (second compound 3.16 µM, first compound 0.0316 µM) 35.2% | viability, T/C (second compound 3.16 µM, first compound 0.1 µM) 38.2% | viability, T/C (second compound 3.16 µM, first compound 0.316 µM) 26.3% | viability, T/C (second compound 3.16 µM, first compound 1 µM) 25.8% | viability, T/C (second compound 3.16 µM, first compound 3.16 µM) 38.4% | viability, T/C (second compound 3.16 µM, first compound 10 µM) 25.6% | viability, T/C (second compound 10 µM, first compound 0.0316 µM) 18.7% | viability, T/C (second compound 10 µM, first compound 0.1 µM) 15.8% | viability, T/C (second compound 10 µM, first compound 0.316 µM) 16.4% | viability, T/C (second compound 10 µM, first compound 1 µM) 24.7% | viability, T/C (second compound 10 µM, first compound 3.16 µM) 16.9% | viability, T/C (second compound 10 µM, first compound 10 µM) 5.88%
7490 nM: IC50 (curve of first compound, second compound 0.0316 µM)
< 31.6 nM: IC50 (curve of first compound, second compound 3.16 µM) | IC50 (curve of first compound, second compound 10 µM)
7560 nM: IC50 (curve of first compound, second compound 0.316 µM)

CC(=O)OC12COC1CC(O)C1(C)C(=O)C(O)C3=C(C)C(OC(=O)C(O)C(NC(=O)OC(C)(C)C)c4ccccc4)CC(O)(C(OC(=O)c4ccccc4)C21)C3(C)C (stereo not given)
< 31.6 nM: IC50 (curve of compound)
inactive: viability, T/C (compound 0.0316 µM) 32.8% [middle of 4 runs] | viability, T/C (compound 0.1 µM) 30.1% [middle of 4 runs] | viability, T/C (compound 0.316 µM) 31% [middle of 4 runs] | viability, T/C (compound 1 µM) 34.2% [middle of 4 runs] | viability, T/C (compound 3.16 µM) 36.2% [middle of 4 runs] | viability, T/C (compound 10 µM) 32.1% [middle of 4 runs]

CC(Nc1ccc2c(c1)OCCn1cc(N3C(=O)OCC3C(F)F)nc1-2)C(N)=O (stereo not given)
1.48 µM [middle of 4 runs]: IC50 (curve of compound)
inactive: viability, T/C (compound 0.0316 µM) 94.1% [middle of 4 runs] | viability, T/C (compound 0.1 µM) 86% [middle of 4 runs] | viability, T/C (compound 0.316 µM) 71.7% [middle of 4 runs] | viability, T/C (compound 1 µM) 54.5% [middle of 4 runs] | viability, T/C (compound 3.16 µM) 40.5% [middle of 4 runs] | viability, T/C (compound 10 µM) 29.4% [middle of 4 runs]
